Patent US10709724B2, “Methods of treating mitochondrial dysfunction” (Ecole Polytechnique Federale de Lausanne (EPFL), priority 2011, dated 2020)

Columns and labels:
[1] = tested on: AMP-activated protein kinase (AMPK); assay: AMPK activity (ACC phosphorylation) in C2C12 myotubes; format: cell-based; conditions: 24 hrs
Procedure: Immunoprecipitation, SDS-PAGE, Western Blotting. Cells were lysed in lysis buffer (50 mM Tris, […], EDTA 1 mM, NP40 1%, nicotinamide 5 mM, Na-butyrate 1 in M, protease inhibitors pH7.4). Proteins were separated by SDS-PAGE and transferred onto nitrocellulose membranes. The origin of the primary and secondary antibodies used can be found as supplemental experimental procedures. Reactions were developed by enhanced chemiluminescence (Amersham, Little Chalfont, UK), PGC-1α, FOXO1 and Ndufa9 acetylation levels were analyzed by immunoprecipitation from cellular or nuclear lysates of tissues with anti-PGC-1α (Millipore), anti-FOXO1 (Cell Signaling, Danvers, Mass., USA) and anti-Ndufa9 (Abcam) antibody followed by Western blot using an acetyl-lysine antibody (Cell Signaling) that was normalized to total PGC-1a/FOXO1/Ndufa9 levels (Lagouge et al., 2006; Rodgers et al., 2005). In HEK293T cells HA-tagged PGC-1α was overexpressed and was immunoprecipitated using an anti-HA. […] All blots were quantified by densitometry using ImageJ software. […] PGC-1 acetylation was determined using PGC-1 immunoprecipitates from 2 mg of protein extracts, as described in Canto et al. (Canto et al., AMPK regulates energy expenditure by modulating NAD+ metabolism and SIRT1 activity. Nature 458, 1056 (2009)).

C. elegans = assay: Quantitative RT-PCR in worms; format: in vivo
Procedure: (§1) mRNA and mtDNA Analysis. Total RNA was prepared using TRIzol (Invitrogen) according to the manufacturer's instructions. RNA was treated with DNase, and 2 μg of RNA was used for reverse transcription (RT). cDNA was purified on QIAquick PCR cleanup columns (Qiagen, Valencia, Calif., USA). 50× diluted cDNA was used for RT-quantitative PCR (RT-VCR) VCR) reactions (Bai et al., 2007). The RT-qPCR reactions were performed using the Light-Cycler system (Roche Applied Science) and a qPCR Supermix (Qiagen) with the primers for mice summarized in Table 1 and 4, and with the primers for worms summarized on Table 7. mtDNA quantification was performed as described (Lagouge et al., 2006) with the primers indicated in Table 2 and 5.

[2] = tested on: C2C12 myotubes, Hepa1.6 and HEK293T cells; assay: Total intracellular NAD+ content after NR in cell lines; format: cell-based, murine and human; conditions: 24 hrs
Description: Murine Hepa1.6 and HEK293T cells were maintained in 4.5 g/L glucose DMEM, 10% FCS. For the transfection of HEK293T cells JetPei was used (Polyplus transfections, Illkirch, France) according to the description of the company. PARP-2 depletion and overexpression took place as described in (Bai et al. 2007).
C2C12 cells were maintained in 4.5 g/L glucose DMEM, 10% FCS and were differentiated in 4.5 g/L glucose DMEM, 2% horse serum for 2 days, when cells were considered myofibers. PARP-2 was depleted from C2C12 cells using lentiviral shRNA system (MISSION Lentiviral Vectors, Sigma-Aldrich). The vectors contained the interfering and control sequences described in (Bai et al. 2007). C2C12 cells were transduced with 20 MOI virus and were selected with […] puromycin. Cells withstanding puromycin selection were subcultured. […] The efficiency of knock-down at the mRNA level was assessed by RT-qPCR.
NAD^+ NAM Determination. NAD^+ levels in cultured cells were determined using a commercial kit (Enzychrom™, BioAssays Systems, CA). For tissue samples NAD^+ and NAM levels were determined as described in (Sauve et al., 2005). […] Clear supernatant was injected onto HPLC C-18 column with 20 mM ammonium acetate eluent to separate NAD^+ and NAM from other cellular components, NAD^+ and NAM peaks (260 nm absorbance) were collected. […]

SIRT1 = SIRT1 activity (FOXO1 acetylation, target genes) in NR-treated HEK293T cells; format: cell-based, human
Procedure: as §1
Immunoprecipitation, SDS-PAGE, Western Blotting. Cells were lysed in lysis buffer (50 mM Tris, […], EDTA 1 mM, NP40 1%, nicotinamide 5 mM, Na-butyrate 1 in M, protease inhibitors pH7.4). Proteins were separated by SDS-PAGE and transferred onto nitrocellulose membranes. The origin of the primary and secondary antibodies used can be found as supplemental experimental procedures. Reactions were developed by enhanced chemiluminescence (Amersham, Little Chalfont, UK), PGC-1α, FOXO1 and Ndufa9 acetylation levels were analyzed by immunoprecipitation from cellular or nuclear lysates of tissues with anti-PGC-1α (Millipore), anti-FOXO1 (Cell Signaling, Danvers, Mass., USA) and anti-Ndufa9 (Abcam) antibody followed by Western blot using an acetyl-lysine antibody (Cell Signaling) that was normalized to total PGC-1a/FOXO1/Ndufa9 levels (Lagouge et al., 2006; Rodgers et al., 2005). In HEK293T cells HA-tagged PGC-1α was overexpressed and was immunoprecipitated using an anti-HA. In C2C12 myotubes, FLAG-HA tagged PGC-1α was introduced through adenoviral delivery 2 days before treatments, then IP was performed using anti-FLAG antibody and samples were processed as described. All blots were quantified by densitometry using ImageJ software. Poly(ADP-Ribose) detection was performed as previously described with slight modifications (Bai et al., PARP-1 inhibition increases mitochondrial metabolism through SIRT1 activation. Cell Metab 13, 461-468. (2011)) Briefly, PAR was detected by using a monoclonal anti-PAR antibody (Alexis, Lausanne Switzerland) by Western blotting of total protein lysates, using either […] of total worm protein lysates, […] of liver protein lysate or 200 g of muscle total protein extracts. PGC-1 acetylation was determined using PGC-1 immunoprecipitates from 2 mg of protein extracts, as described in Canto et al. (Canto et al., AMPK regulates energy expenditure by modulating NAD+ metabolism and SIRT1 activity. Nature 458, 1056 (2009)).

`CN(C)CC(=O)Nc1ccc2[nH]c(=O)c3ccccc3c2c1` [PJ34] was tested, and the “AMPK activity (ACC phosphorylation levels)” value [1] was “does not alter AMPK activity”.

For `NC(=O)c1ccc[n+]([C@@H]2O[C@H](CO)[C@@H](O)[C@H]2O)c1` [NR, nicotinamide riboside], the “expression of genes of mitochondrial oxidative metabolism (cts-1, cox-4)” value (C. elegans; day 3 of adulthood) was “trend for increased cts-1 expression”, the daf-16 expression (C. elegans; in vivo) was “without affecting daf-16 mRNA levels” and the sod-3 expression (C. elegans; in vivo) was “significantly higher sod-3 expression”. The “ability to increase intracellular NAD+ compared with NMN and NA” value ([2]; 0.5 mM) was “at least, similar to that of these other precursors”, the “intracellular NAD+ levels” value [2] was “dose-dependently increased intracellular NAD^+ levels” and the “expression of FOXO1 target genes (Gadd45, Catalase, Sod1, Sod2)” value (SIRT1) was “higher expression of target genes”. The Sod2 expression (SIRT1; 0.5 mM, 24 hrs) was “higher expression of a FOXO1 target gene, Sod2”, the “Ucp2 mRNA levels” value (SIRT1; 0.5 mM, 24 hrs) was “decreased Ucp2 mRNA levels” and the “Ucp2 expression with Sirt1 knock-down” value (SIRT1; 0.5 mM, 24 hrs, SIRT1 siRNAs) was “knocking down Sirt1 prevented the action of NR on Ucp2 expression”. The “intracellular NAD+ content with SIRT1 knock-down” value (SIRT1; 0.5 mM, 24 hrs, SIRT1 siRNAs) was “did not compromise the ability of NR to increase intracellular NAD^+ content”, the “Sod2 expression with Foxo1 or Sirt1 knockdown” value (SIRT1; 0.5 mM, 24 hrs, siRNAs) was “prevented by the knockdown of either Foxo1 or Sirt1” and the SIRT1 protein levels (SIRT1; 24 hrs) was “lack of changes in SIRT1 protein levels”. The “acetylation of FOXO1” value (SIRT1; 24 hrs, SIRT1-dependent) was “dose-dependently decreased the acetylation of FOXO1”.
